{"source": "ChEMBL document CHEMBL1201862", "about": "“PubChem BioAssay data set” (2004)", "format_in_all_cases": "functional", "key": {"Caspase-3": {"molecular_target": "T1, Caspase-3 (Homo sapiens, UniProt P42574)", "T1 sequence (P42574 whole entry)": "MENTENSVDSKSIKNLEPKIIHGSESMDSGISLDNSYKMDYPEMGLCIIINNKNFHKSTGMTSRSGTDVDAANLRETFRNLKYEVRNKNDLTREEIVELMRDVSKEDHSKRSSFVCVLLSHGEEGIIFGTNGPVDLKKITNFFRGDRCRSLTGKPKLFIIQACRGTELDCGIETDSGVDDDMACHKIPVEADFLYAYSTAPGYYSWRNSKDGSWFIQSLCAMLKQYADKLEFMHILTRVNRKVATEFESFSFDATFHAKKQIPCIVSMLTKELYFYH"}, "[1]": {"molecular_target": "T2, Sentrin-specific protease 7 (Homo sapiens, UniProt Q9BQF6)", "T2 sequence (Q9BQF6 whole entry)": "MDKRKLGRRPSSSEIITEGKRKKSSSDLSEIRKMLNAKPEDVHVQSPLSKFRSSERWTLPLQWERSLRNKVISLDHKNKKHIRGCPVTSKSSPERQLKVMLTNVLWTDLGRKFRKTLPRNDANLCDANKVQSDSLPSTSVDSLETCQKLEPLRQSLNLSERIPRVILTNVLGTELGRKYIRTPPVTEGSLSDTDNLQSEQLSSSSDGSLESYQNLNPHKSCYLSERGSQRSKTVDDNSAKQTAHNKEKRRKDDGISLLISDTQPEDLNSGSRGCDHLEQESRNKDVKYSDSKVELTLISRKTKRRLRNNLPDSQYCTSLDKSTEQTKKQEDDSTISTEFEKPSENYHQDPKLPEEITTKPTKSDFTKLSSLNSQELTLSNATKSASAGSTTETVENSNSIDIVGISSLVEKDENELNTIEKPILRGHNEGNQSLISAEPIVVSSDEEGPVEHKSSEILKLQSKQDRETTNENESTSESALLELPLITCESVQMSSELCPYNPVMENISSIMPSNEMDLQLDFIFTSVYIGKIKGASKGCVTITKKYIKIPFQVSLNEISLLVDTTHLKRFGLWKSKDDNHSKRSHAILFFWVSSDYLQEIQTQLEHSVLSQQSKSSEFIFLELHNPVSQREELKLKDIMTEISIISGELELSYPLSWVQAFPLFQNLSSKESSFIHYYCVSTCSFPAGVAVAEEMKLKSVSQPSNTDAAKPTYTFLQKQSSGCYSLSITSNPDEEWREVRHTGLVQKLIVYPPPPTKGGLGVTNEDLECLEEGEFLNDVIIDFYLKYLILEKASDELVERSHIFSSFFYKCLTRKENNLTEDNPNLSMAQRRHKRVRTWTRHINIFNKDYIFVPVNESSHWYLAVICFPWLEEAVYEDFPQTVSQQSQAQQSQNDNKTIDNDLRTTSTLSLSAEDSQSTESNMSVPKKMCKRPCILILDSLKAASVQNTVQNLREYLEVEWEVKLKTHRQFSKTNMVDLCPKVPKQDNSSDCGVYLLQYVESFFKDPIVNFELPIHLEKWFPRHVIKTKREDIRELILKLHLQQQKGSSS"}, "[2]": {"molecular_target": "T3, Sentrin-specific protease 8 (Homo sapiens, UniProt Q96LD8)", "T3 sequence (Q96LD8 whole entry)": "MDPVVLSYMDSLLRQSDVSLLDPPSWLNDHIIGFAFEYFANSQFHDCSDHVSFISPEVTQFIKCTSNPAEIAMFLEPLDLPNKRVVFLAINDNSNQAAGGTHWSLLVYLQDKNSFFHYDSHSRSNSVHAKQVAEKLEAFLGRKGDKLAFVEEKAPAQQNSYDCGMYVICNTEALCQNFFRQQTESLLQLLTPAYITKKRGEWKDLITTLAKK"}, "[3]": {"molecular_target": "T4, Apoptotic protease-activating factor 1 (Homo sapiens, UniProt O14727)", "T4 sequence (O14727 whole entry)": "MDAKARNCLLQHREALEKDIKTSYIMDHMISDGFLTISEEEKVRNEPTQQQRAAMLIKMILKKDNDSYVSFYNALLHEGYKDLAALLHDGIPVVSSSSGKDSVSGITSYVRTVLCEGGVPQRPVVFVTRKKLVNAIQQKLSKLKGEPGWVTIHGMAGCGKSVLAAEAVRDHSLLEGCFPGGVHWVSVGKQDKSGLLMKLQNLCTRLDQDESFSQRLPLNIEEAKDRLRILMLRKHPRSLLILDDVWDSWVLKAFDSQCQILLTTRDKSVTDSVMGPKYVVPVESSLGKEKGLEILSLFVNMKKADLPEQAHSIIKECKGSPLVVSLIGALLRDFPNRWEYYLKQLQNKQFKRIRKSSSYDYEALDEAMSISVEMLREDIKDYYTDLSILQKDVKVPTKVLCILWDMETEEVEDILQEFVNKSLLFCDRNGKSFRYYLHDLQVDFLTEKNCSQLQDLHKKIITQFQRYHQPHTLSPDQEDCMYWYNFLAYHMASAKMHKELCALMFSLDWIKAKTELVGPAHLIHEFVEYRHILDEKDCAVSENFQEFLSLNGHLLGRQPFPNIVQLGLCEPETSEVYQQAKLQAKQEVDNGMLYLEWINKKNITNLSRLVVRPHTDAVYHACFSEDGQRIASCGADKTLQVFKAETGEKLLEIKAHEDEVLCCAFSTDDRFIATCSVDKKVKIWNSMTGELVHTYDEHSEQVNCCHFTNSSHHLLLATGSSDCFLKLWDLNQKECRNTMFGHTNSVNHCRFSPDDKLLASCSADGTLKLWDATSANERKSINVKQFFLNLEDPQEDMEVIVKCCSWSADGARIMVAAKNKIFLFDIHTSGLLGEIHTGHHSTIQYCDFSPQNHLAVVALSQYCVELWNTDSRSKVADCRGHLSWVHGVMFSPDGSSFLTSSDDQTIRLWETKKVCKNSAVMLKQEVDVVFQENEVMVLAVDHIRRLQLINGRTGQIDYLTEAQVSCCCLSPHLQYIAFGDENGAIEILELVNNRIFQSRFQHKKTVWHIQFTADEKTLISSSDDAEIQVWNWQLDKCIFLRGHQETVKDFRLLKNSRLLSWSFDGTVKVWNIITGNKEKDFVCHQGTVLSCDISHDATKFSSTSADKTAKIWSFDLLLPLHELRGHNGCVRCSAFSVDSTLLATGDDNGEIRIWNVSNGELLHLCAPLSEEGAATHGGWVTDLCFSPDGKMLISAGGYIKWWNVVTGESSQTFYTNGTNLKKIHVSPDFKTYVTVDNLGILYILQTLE"}, "[4]": {"molecular_target": "T2, Sentrin-specific protease 7", "assay": "inhibition of human SENP7 cleavage activity – biochemical, luminescence, SAR follow-up (AID 504497)"}}, "note": "Active and inactive are the calls of the source. Cut-off read from the data, not from the text of the source: actives have a measured IC50 and inactives only a lower limit."}
{"smiles": "O=C(NN=c1c(=O)c2ccccc2c1=O)c1ccccc1", "values": [{"measurement": "IC50", "setting": "Caspase-3", "value": "> 100 µM (inactive)"}, {"measurement": "IC50", "setting": "[1]", "value": "10.7 µM (active)"}, {"measurement": "IC50", "setting": "[2]", "value": "> 100 µM (inactive)"}, {"measurement": "IC50", "setting": "[3]", "value": "1.66 µM (active)"}, {"measurement": "IC50", "setting": "[4]", "value": "12 µM (active)"}]}
